Assay results from patent US20240190880A1 (THE REGENTS OF THE UNIVERSITY OF MICHIGAN, priority 2021, published 2024).

Molecular target: T1, ER (Homo sapiens, UniProt P03372)
T1 construct: host or cells: T47D and MCF7 human breast cancer cells
T1 sequence (P03372 1-595): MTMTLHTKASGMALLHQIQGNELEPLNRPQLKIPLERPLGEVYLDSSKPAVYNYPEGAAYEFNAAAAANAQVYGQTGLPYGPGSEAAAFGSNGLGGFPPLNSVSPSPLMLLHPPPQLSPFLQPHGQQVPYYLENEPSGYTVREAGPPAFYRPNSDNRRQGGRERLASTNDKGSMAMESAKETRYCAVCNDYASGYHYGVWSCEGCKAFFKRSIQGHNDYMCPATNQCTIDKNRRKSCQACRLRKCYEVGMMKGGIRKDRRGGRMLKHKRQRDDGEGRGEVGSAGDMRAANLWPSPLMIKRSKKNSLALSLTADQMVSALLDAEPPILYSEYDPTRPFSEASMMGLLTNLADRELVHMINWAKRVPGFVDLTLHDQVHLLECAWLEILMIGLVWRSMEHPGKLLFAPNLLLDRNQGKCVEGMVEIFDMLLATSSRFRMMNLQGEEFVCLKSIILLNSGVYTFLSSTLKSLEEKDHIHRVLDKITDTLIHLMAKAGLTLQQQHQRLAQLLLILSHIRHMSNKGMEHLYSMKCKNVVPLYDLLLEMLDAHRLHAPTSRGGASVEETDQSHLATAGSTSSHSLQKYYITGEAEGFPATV
Assay: ER degradation activity, in-cell western blot analysis in T47D cells
Format: cell-based
Details: 16 hours, Table A does not say which cell line (T47D or MCF7), read-out: Potency (DC50)
In short: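 T47D cells grown in DMEM with 10% FBS were treated with compounds for 16 hours at 0.5% DMSO final. ER was detected by in-cell western using 680/800 near-infrared secondary antibodies. Residual ER is given as percent of untreated and DMSO-treated wells set to 100%.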

Structure (SMILES)	DC50 [nM]
C[C@@H]1Cc2c([nH]c3ccccc23)[C@@H](c2cnc(N3CCC(CN4CCC(N5Cc6cc7c(cc6C5)C(=O)N(C5CCC(=O)NC5=O)C7=O)CC4)CC3)nc2)N1CC(F)(F)F (stereo partly drawn) [E 256, 2-(2,6-dioxopiperidin-3-yl)-6-(1-((1-(5-((1R,3R)-3-methyl-2-(2,2,2-trifluoroethyl)-2,3,4,9-tetrahydro-1H-pyrido[3,4-b]indol-1-yl)pyrimidin-2-yl)piperidin-4-yl)methyl)piperidin-4-yl)-6,7-dihydropyrrolo[3,4-f]isoindole-1,3(2H,5H)-dione]	10 to 100
O=C1CCC(N2C(=O)c3cc4c(cc3C2=O)CN(C2CCN(C(=O)C3(F)CCN(c5ccc([C@@H]6c7ccc(O)cc7CC[C@@H]6c6ccccc6)cc5)CC3)CC2)C4)C(=O)N1 (stereo partly drawn) [E 241, 2-(2,6-dioxopiperidin-3-yl)-6-(1-(4-fluoro-1-(4-((1R,2S)-6-hydroxy-2-phenyl-1,2,3,4-tetrahydronaphthalen-1-yl)phenyl)piperidine-4-carbonyl)piperidin-4-yl)-6,7-dihydropyrrolo[3,4-f]isoindole-1,3(2H,5H)-dione]	> 100
C[C@@H]1Cc2cc(O)ccc2[C@@H](c2c(F)cc(N3CCC4(CN(CC(=O)N5Cc6cc7c(cc6C5)C(=O)N(C5CCC(=O)NC5=O)C7)C4)C3)cc2F)N1CC(F)F (stereo partly drawn) [E 38, 3-(6-(2-(6-(4-((1S,3R)-2-(2,2-difluoroethyl)-6-hydroxy-3-methyl-1,2,3,4-tetrahydroisoquinolin-1-yl)-3,5-difluorophenyl)-2,6-diazaspiro[3.4]octan-2-yl)acetyl)-1-oxo-3,5,6,7-tetrahydropyrrolo[3,4-f]isoindol-2(1H)-yl)piperidine-2,6-dione]	10 to 100
C[C@@H]1Cc2c([nH]c3ccccc23)[C@@H](c2cnc(N3CCC4(CC3)CN(C(=O)CN3Cc5cc6c(cc5C3)C(=O)N(C3CCC(=O)NC3=O)C6=O)C4)nc2)N1CC(F)F (stereo partly drawn) [E 259, 6-(2-(7-(5-((1R,3R)-2-(2,2-difluoroethyl)-3-methyl-2,3,4,9-tetrahydro-1H-pyrido[3,4-b]indol-1-yl)pyrimidin-2-yl)-2,7-diazaspiro[3.5]nonan-2-yl)-2-oxoethyl)-2-(2,6-dioxopiperidin-3-yl)-6,7-dihydropyrrolo[3,4-f]isoindole-1,3(2H,5H)-dione]	< 10
O=C1CCC(N2C(=O)c3cc4c(cc3C2=O)CN(CC(=O)N2CCC(Oc3ccc([C@@H]5c6ccc(O)cc6CC[C@@H]5c5ccccc5)cc3)CC2)C4)C(=O)N1 (stereo partly drawn) [E 219, 2-(2,6-dioxopiperidin-3-yl)-6-(2-(4-(4-((1R,2S)-6-hydroxy-2-phenyl-1,2,3,4-tetrahydronaphthalen-1-yl)phenoxy)piperidin-1-yl)-2-oxoethyl)-6,7-dihydropyrrolo[3,4-f]isoindole-1,3(2H,5H)-dione]	> 100
O=C1CCC(N2C(=O)c3cc4c(cc3C2=O)CCN(CC(=O)N2CCC3(CC2)CCN(c2ccc([C@@H]5c6ccc(O)cc6CC[C@@H]5c5ccc(F)cc5)cc2)CC3)CC4)C(=O)N1 (stereo partly drawn) [E 183, 2-(2,6-dioxopiperidin-3-yl)-7-(2-(9-(4-((1R,2S)-2-(4-fluorophenyl)-6-hydroxy-1,2,3,4-tetrahydronaphthalen-1-yl)phenyl)-3,9-diazaspiro[5.5]undecan-3-yl)-2-oxoethyl)-6,7,8,9-tetrahydroazepino[4,5-f]isoindole-1,3(2H,5H)-dione]	> 100
C[C@@H]1Cc2cc(O)ccc2[C@@H](c2c(F)cc(N3CCC(N4CC(CN5Cc6cc7c(cc6C5)C(=O)N(C5CCC(=O)NC5=O)C7=O)C4)CC3)cc2F)N1CC(F)F (stereo partly drawn) [E 46, 6-((1-(1-(4-((1S,3R)-2-(2,2-difluoroethyl)-6-hydroxy-3-methyl-1,2,3,4-tetrahydroisoquinolin-1-yl)-3,5-difluorophenyl)piperidin-4-yl)azetidin-3-yl)methyl)-2-(2,6-dioxopiperidin-3-yl)-6,7-dihydropyrrolo[3,4-f]isoindole-1,3(2H,5H)-dione]	> 100
